Source: publication PMC8359193, “Summary of reference chemicals evaluated by the fish short‐term reproduction assay, OECD TG229, using Japanese Medaka, Oryzias latipes” (Journal of Applied Toxicology, 2021)
Entries after “also recorded” stand apart in the source; their conditions may differ.

How the values were obtained:
[1] = test system: Japanese medaka (Oryzias latipes); assay: Fish short-term reproduction assay (FSTRA, OECD TG229), 21-day flow-through exposure; conditions: for Fertility rate (%) / Mortality (%) Female / Mortality (%) Male / Number of fertilized eggs / Number of total eggs / SSC Female / SSC Male / VTG (ng/mg of liver) Female / VTG (ng/mg of liver) Male: 21 days; for GSI Female / GSI Male / HSI Female / HSI Male / Length Female / Length Male / Weight Female / Weight Male: at completion of exposure
In short: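 Japanese medaka (NIES-R strain, 16 ± 2 weeks old) were exposed in flow-through tanks for 3 weeks, three males and three females per tank, four replicate tanks per group, with a dilution water control. Concentrations were spaced by a factor of 2–5. Eggs were collected daily and counted as fertilized or unfertilized.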

medaka ARβ (mARβ) = medaka ARβ (mARβ) (Oryzias latipes, UniProt D1MV73); assay: Medaka ARβ reporter gene assay (RGA), antagonist assay with 50 nM 11KT, HepG2 cells; format: cell-based, Japanese medaka (Oryzias latipes); conditions: 50 nM 11KT-induced mARβ activity
medaka ARβ (mARβ), sequence (D1MV73 entry or part of it): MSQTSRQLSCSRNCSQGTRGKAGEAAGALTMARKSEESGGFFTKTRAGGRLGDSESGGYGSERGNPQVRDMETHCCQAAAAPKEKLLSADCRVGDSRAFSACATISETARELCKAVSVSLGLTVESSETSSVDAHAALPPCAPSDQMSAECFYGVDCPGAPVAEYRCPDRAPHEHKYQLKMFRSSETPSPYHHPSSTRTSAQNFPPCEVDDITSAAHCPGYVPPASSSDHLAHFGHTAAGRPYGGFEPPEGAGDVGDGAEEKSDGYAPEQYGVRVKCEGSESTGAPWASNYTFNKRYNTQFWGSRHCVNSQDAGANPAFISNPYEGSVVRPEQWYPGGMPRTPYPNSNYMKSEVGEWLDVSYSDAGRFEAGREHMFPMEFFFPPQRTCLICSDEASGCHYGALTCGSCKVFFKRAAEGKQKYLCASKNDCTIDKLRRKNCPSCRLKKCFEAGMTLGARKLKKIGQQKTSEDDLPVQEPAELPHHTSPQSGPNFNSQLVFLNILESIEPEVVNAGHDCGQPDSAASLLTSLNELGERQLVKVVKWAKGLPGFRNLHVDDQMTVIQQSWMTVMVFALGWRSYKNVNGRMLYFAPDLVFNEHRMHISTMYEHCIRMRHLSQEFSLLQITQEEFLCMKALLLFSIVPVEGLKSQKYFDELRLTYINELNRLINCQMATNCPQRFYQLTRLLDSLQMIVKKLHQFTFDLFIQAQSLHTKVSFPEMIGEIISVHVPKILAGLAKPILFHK
Protocol: To support interpretation of the biological effects observed in the FSTRA studies, in vitro RGAs using medaka Esr1 (mEsr1) and medaka ARβ (mARβ) were performed for the 16 test chemicals. In the present study, Esr1 and ARβ, which are ancestral subtypes among Esrs and ARs in Japanese medaka, were selected based on the phylogenetical analyses of Esr and AR with each receptor RGAs (Ogino et al., [2016], [2018]; Tohyama et al., [2015]).
The mARβ RGA in which the agonist and the antagonist assays were performed as same as the mEsr1 RGA was carried out according to the methods previously reported by Lange et al. ([2015]). For the assays, human liver cancer cell line, HepG2, was used as the host cells, and mARβ/pcDNA3.1, MMTV‐Luc, and pRL‐TK‐Rlu were used as mARβ expression vector, reporter vector, and internal control vector, respectively. Other materials and methods, for example, operating procedure, reagents, and incubation conditions, were almost the same as the mEsr1 RGA previously described beside that 11KT (Sigma‐Aldrich, purity 99.0%), a main AR ligand in fish, was competitively spiked at 50 nM into the test medium with test chemicals in antagonist assay. In the agonist and the antagonist assays, 11KT and 2‐hydroxyflutamide (2HFLT; Sigma‐Aldrich, purity 98.5%) were used as positive controls, respectively.
Effect concentrations, that is, EC50 (a half maximal effective concentration) in the agonist assay and IC50 (a half maximal inhibitory concentration) in the antagonist assay, were estimated by nonlinear curve fitting (e.g., three parameters logistic regression curve) using GraphPad Prism (GraphPad Software Inc., La Jolla, CA, USA).

fathead minnow = test system: fathead minnow; design: method as in US EPA, 2007; conditions: three participating laboratories; ref US EPA, 2007; cited from earlier work
Japanese medaka = conditions: MMT, ref Flynn et al. (2017), cited from earlier work

C=CC1(C)OC(=O)N(c2cc(Cl)cc(Cl)c2)C1=O (centres unmarked) [VCZ, Vinclozolin]
effect on fertility rate, in words ([1]; 21-day exposure): significant decrease; also recorded: significant reduction
Fertility rate (%) ([1]; measured conc. 14.5 μg/L): 95%
Mortality (%) Female ([1]; measured conc. 14.5 μg/L): 0%
Mortality (%) Male ([1]; measured conc. 14.5 μg/L): 0%
Number of fertilized eggs ([1]; measured conc. 14.5 μg/L): 22
Number of total eggs ([1]; measured conc. 14.5 μg/L): 24 ± 2.6 /female/day
SSC Female ([1]; measured conc. 14.5 μg/L): 0 ± 0
SSC Male ([1]; measured conc. 14.5 μg/L): 108 ± 18
VTG (ng/mg of liver) Female ([1]; measured conc. 14.5 μg/L): 886 ± 300 ng/mg of liver
VTG (ng/mg of liver) Male ([1]; measured conc. 14.5 μg/L): 7.5 ± 7.2 ng/mg of liver
GSI Female ([1]; measured conc. 14.5 μg/L): 11.8%
GSI Male ([1]; measured conc. 14.5 μg/L): 1.09%
HSI Female ([1]; measured conc. 14.5 μg/L): 4.6%
HSI Male ([1]; measured conc. 14.5 μg/L): 1.7%
Length Female ([1]; measured conc. 14.5 μg/L): 35.2 mm
Length Male ([1]; measured conc. 14.5 μg/L): 34.8 mm
Weight Female ([1]; measured conc. 14.5 μg/L): 447 mg
Weight Male ([1]; measured conc. 14.5 μg/L): 455 mg
Fertility rate (%) ([1]; measured conc. 43.9 μg/L): 94%
Mortality (%) Female ([1]; measured conc. 43.9 μg/L): 0%
Mortality (%) Male ([1]; measured conc. 43.9 μg/L): 0%
Number of fertilized eggs ([1]; measured conc. 43.9 μg/L): 22
Number of total eggs ([1]; measured conc. 43.9 μg/L): 23 ± 5.3 /female/day
SSC Female ([1]; measured conc. 43.9 μg/L): 0 ± 0
SSC Male ([1]; measured conc. 43.9 μg/L): 95 ± 16
VTG (ng/mg of liver) Female ([1]; measured conc. 43.9 μg/L): 816 ± 278 ng/mg of liver
VTG (ng/mg of liver) Male ([1]; measured conc. 43.9 μg/L): 10 ± 12 ng/mg of liver
GSI Female ([1]; measured conc. 43.9 μg/L): 10.7%
GSI Male ([1]; measured conc. 43.9 μg/L): 1.24%
HSI Female ([1]; measured conc. 43.9 μg/L): 4.7%
HSI Male ([1]; measured conc. 43.9 μg/L): 1.7%
Length Female ([1]; measured conc. 43.9 μg/L): 35.0 mm
Length Male ([1]; measured conc. 43.9 μg/L): 34.4 mm
Weight Female ([1]; measured conc. 43.9 μg/L): 445 mg
Weight Male ([1]; measured conc. 43.9 μg/L): 427 mg
Fertility rate (%) ([1]; measured conc. 137 μg/L): 90%
Mortality (%) Female ([1]; measured conc. 137 μg/L): 0%
Mortality (%) Male ([1]; measured conc. 137 μg/L): 0%
Number of fertilized eggs ([1]; measured conc. 137 μg/L): 19
Number of total eggs ([1]; measured conc. 137 μg/L): 21 ± 4.3 /female/day
SSC Female ([1]; measured conc. 137 μg/L): 0 ± 0
SSC Male ([1]; measured conc. 137 μg/L): 108 ± 16
VTG (ng/mg of liver) Female ([1]; measured conc. 137 μg/L): 651 ± 217 ng/mg of liver
VTG (ng/mg of liver) Male ([1]; measured conc. 137 μg/L): 3.6 ± 2.3 ng/mg of liver
GSI Female ([1]; measured conc. 137 μg/L): 10.6%
GSI Male ([1]; measured conc. 137 μg/L): 1.40%
HSI Female ([1]; measured conc. 137 μg/L): 4.5%
HSI Male ([1]; measured conc. 137 μg/L): 1.5%
Length Female ([1]; measured conc. 137 μg/L): 34.8 mm
Length Male ([1]; measured conc. 137 μg/L): 34.4 mm
Weight Female ([1]; measured conc. 137 μg/L): 437 mg
Weight Male ([1]; measured conc. 137 μg/L): 425 mg
Fertility rate (%) ([1]; measured conc. 453 μg/L): 84%
Mortality (%) Female ([1]; measured conc. 453 μg/L): 0%
Mortality (%) Male ([1]; measured conc. 453 μg/L): 0%
Number of fertilized eggs ([1]; measured conc. 453 μg/L): 17
Number of total eggs ([1]; measured conc. 453 μg/L): 20 ± 5.9 /female/day
SSC Female ([1]; measured conc. 453 μg/L): 0 ± 0
SSC Male ([1]; measured conc. 453 μg/L): 102 ± 17
VTG (ng/mg of liver) Female ([1]; measured conc. 453 μg/L): 111 ± 92 ng/mg of liver
VTG (ng/mg of liver) Male ([1]; measured conc. 453 μg/L): 3.9 ± 8.6 ng/mg of liver
GSI Female ([1]; measured conc. 453 μg/L): 12.0%
GSI Male ([1]; measured conc. 453 μg/L): 1.46%
HSI Female ([1]; measured conc. 453 μg/L): 4.7%
HSI Male ([1]; measured conc. 453 μg/L): 1.8%
Length Female ([1]; measured conc. 453 μg/L): 34.8 mm
Length Male ([1]; measured conc. 453 μg/L): 34.9 mm
Weight Female ([1]; measured conc. 453 μg/L): 455 mg
Weight Male ([1]; measured conc. 453 μg/L): 455 mg
effect on fecundity (number of total eggs), in words ([1]; within the test concentrations, 21-day exposure): No effect
mARβ antagonist activity (in words) (medaka ARβ (mARβ)): inhibited
nominal concentration with significant decrease in nuptial tubercle number in males (fathead minnow): 900 µg/L
LOEC on SSC in females (Japanese medaka): 33 µg/L
LOEC on reproduction (fecundity and/or fertility) (Japanese medaka; long-term exposure): 253 µg/L
